Laboratory results from patent publication US5409899A, “Pseudopeptide compounds having anti-inflammatory activity” (Adir et Compagnie, priority 1992, dated 1995).
Counter-ions that a name gives are not always drawn. Square brackets hold non-standard residues; d marks the D form. Peptide text beside a SMILES is read from it. * marks the point of attachment. Benzoyl(4-guanidino) = N=C(N)Nc1ccc(C(=O)*)cc1; Oic = O=C(O)[C@@H]1C[C@@H]2CCCC[C@@H]2N1; Hyp = O=C(O)[C@@H]1C[C@@H](O)CN1; dTic = O=C(O)[C@H]1Cc2ccccc2CN1; 2Thi = N[C@@H](Cc1cccs1)C(=O)O

Molecular target: T1, B2 receptor (Oryctolagus cuniculus, UniProt Q28642)
T1 construct: rabbit jugular vein: B2 receptor; from tissue; host or cells: rabbit jugular vein
T1 sequence (Q28642 1-367): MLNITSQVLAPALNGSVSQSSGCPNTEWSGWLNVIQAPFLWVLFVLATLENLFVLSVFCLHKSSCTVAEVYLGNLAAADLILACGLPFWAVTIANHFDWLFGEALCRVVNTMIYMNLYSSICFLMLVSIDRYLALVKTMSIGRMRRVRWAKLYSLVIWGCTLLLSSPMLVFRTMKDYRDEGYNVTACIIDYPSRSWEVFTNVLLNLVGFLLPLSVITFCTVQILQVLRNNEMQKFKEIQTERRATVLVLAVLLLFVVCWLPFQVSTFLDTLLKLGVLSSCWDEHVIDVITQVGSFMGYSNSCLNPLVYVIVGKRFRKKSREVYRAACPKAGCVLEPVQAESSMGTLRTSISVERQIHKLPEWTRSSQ
Assay: Inhibition of bradykinin-induced contraction of rabbit jugular vein (B2 receptor)
Format: cell-based
Conditions: read-out: pA2 (negative logarithm of the molar concentration which necessitates a doubling of the bradykinin concentration to obtain the same effect) (converted)
Source text: Pharmacological study of the compound of the invention: rabbit jugular vein: B2 receptor

N=C(N)NCCC[C@H](NC(=O)[C@@H]1C[C@@H]2CCCC[C@@H]2N1C(=O)[C@H]1Cc2ccccc2CN1C(=O)[C@H](CO)NC(=O)[C@H](Cc1cccs1)NC(=O)CNC(=O)[C@@H]1C[C@@H](O)CN1C(=O)[C@@H]1CCCN1C(=O)[C@H](CCCNC(=N)N)NC(=O)c1ccc(NC(=N)N)cc1)C(=O)O [Example 1, G-Arg-Pro-Hyp-Gly-Thia-Ser-(D)Tic-Oic-Arg-OH trifluoroacetate] ({Benzoyl(4-guanidino)}-RP[Hyp]G[2Thi]S[dTic][Oic]R-OH)
Kb: 0.186 nM
